According to ChEMBL document CHEMBL3046700, “Identification of novel inhibitors of HIV-1 integrase using pharmacophore-based virtual screening combined with molecular docking strategies” (Med Chem Res, 2013):

Target: Human immunodeficiency virus type 1 integrase (Human immunodeficiency virus 1, UniProt Q7ZJM1)
Experiment: Inhibition of Human immunodeficiency virus 1 integrase strand transfer activity using [32P]5'end-labeled linear 21 mer as substrate incubated for 30 min prior to substrate addition measured after 1 hr

Sequence of Human immunodeficiency virus type 1 integrase (Q7ZJM1 whole entry): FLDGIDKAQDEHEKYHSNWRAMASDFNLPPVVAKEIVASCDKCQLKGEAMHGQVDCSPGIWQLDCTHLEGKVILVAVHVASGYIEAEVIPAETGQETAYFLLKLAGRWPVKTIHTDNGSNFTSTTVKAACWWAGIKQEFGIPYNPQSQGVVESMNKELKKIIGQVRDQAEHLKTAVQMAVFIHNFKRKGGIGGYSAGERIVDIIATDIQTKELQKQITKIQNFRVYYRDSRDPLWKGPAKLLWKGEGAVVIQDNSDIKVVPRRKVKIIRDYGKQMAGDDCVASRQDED

Cc1cc2nc3nc(N)nc(NS(=O)(=O)c4cc(C)c(Cl)cc4S)n3c2cc1C
IC50: 7.41 µM

Cc1cc(S(=O)(=O)Nc2nnc3c4scc(C)c4ncn23)c(S)cc1Cl
IC50: 4.26 µM

Cc1ccc(-n2ncnc2-c2nc3ccccc3nc2NS(=O)(=O)c2cc(C(=O)Nc3ccccc3)c(Cl)cc2S)cc1
IC50: 10 µM

O=S(=O)(/C=C/c1ccc(O)c(O)c1O)CS(=O)(=O)/C=C/c1ccc(O)c(O)c1O
IC50: 0.9 µM

O=C(Oc1ccc(/C=C/S(=O)(=O)CS(=O)(=O)/C=C/c2ccc(OC(=O)c3ccccc3)c(OC(=O)c3ccccc3)c2)cc1OC(=O)c1ccccc1)c1ccccc1
IC50: 700 µM

Cc1cc2c(cc1Cl)SC(C(=O)c1ccc(F)cc1)=NS2(=O)=O
IC50: 42 µM

CC(C)c1nc(C(=O)NCc2ccc(F)cc2)c(O)c(=O)n1C
IC50: 0.14 µM

O=C1NC(=S)SC1NS(=O)(=O)c1ccc(/N=N/c2ncccn2)cc1 (stereo not given)
IC50: 14.1 µM

NNS(=O)(=O)c1cccc(OCC(=O)O)c1
IC50: 8.7 µM

COc1ccc(C(=O)C2=NS(=O)(=O)c3cc(C)c(Cl)cc3S2)cc1
IC50: 12 µM
